Assay results taken from paper PMC2363545 (British Journal of Cancer, 2000).
Values joined by “and” are separate entries in the source; they are usually repeats but may differ in a detail not shown here. Identical values can stand only once.

Legend:
[1] = test system: breast cancer cell lines; conditions: cited from earlier work
[2] = test system: tubulin
[3] = test system: breast cancer cell lines
[4] = test system: anal carcinoma; conditions: in vivo
[5] = in vivo
[6] = test system: advanced breast cancer; conditions: in vivo
[7] = test system: NQO2-transfected rodent or non-transfected human tumor cell lines
[8] = in vivo; remark: listed apart in the source
[9] = test system: VB6 and H357 SCC cells; assay type: cell-based, human
[10] = test system: MCF-7
[11] = test system: advanced head and neck cancer; conditions: in vivo
[12] = test system: topoisomerase II expression in NIH3T3 cells
[13] = test system: HUVECs
[14] = test system: SCLC; conditions: in vivo
[15] = test system: metastatic breast cancer; conditions: in vivo
[16] = test system: metastatic RCC; set-up: species or system human; conditions: in vivo, po
[17] = biological target: reduced-folate carrier (RFC) (Homo sapiens, UniProt P41440); conditions: read-out: Km for the RFC
Sequence of reduced-folate carrier (RFC) (P41440 whole entry): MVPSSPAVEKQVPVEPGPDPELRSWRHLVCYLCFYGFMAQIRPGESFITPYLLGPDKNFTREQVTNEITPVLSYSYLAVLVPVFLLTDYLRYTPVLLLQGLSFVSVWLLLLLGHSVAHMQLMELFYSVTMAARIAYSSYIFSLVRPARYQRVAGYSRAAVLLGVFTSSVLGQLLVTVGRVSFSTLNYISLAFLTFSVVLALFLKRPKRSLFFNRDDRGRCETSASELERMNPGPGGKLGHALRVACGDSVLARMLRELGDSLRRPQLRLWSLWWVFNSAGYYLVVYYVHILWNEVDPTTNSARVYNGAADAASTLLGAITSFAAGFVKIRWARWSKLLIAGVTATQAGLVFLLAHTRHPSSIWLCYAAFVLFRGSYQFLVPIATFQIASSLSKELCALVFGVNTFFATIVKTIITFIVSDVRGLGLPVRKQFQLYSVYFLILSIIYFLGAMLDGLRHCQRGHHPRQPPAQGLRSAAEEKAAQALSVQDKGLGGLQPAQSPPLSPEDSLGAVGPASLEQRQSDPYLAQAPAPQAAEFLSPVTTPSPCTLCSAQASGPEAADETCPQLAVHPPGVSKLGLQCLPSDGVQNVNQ

[18] = biological target: DNA-topoisomerase I (Homo sapiens, UniProt P11387); assay type: biochemical
Sequence of DNA-topoisomerase I (P11387 whole entry): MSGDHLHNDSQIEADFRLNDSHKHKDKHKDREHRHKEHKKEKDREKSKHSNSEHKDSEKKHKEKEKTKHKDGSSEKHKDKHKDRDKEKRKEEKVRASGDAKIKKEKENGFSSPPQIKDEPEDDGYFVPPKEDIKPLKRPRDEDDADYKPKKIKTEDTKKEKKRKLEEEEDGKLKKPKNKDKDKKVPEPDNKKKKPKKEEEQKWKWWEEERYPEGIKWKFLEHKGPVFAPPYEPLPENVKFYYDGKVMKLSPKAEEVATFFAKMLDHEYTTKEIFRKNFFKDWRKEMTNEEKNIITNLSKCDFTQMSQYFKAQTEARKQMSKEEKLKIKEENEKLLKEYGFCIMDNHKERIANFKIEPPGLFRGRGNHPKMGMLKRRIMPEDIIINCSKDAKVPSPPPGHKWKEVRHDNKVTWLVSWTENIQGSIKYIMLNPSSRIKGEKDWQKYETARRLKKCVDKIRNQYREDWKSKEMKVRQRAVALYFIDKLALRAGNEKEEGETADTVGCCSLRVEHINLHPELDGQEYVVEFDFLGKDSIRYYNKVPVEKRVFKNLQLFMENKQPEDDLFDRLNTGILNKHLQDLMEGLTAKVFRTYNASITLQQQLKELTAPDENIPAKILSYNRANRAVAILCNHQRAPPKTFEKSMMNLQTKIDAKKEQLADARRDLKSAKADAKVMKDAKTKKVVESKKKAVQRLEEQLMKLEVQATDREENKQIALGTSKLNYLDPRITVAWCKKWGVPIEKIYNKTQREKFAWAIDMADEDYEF

[19] = test system: carcinoma of cervix; conditions: in vivo
[20] = in vivo; remark: listed apart in the source
[21] = test system: cervix cancer; conditions: in vivo
[22] = test system: liver metastases (murine T50/80 breast); set-up: species or system mice; conditions: mouse, in vivo
[23] = test system: hepatocytes
[24] = mouse, in vivo
[25] = test system: colorectal cell lines
[26] = test system: MCF7 cells
[27] = in vivo; remark: listed apart in the source
[28] = in vivo; remark: listed apart in the source

For `COc1cc2c(cc1OS(N)(=O)=O)CC[C@@H]1[C@@H]2CC[C@]2(C)C(=O)CC[C@@H]12` [2-MeOEMATE, 2-Methoxyestrone-3-O-Sulfamate], the “G2/M arrest in breast cancer cells in vitro” value [1] is given as “induced G2/M arrest”, the “effect on tubulin assembly” value [2] is given as “inhibited the ability of paclitaxel to promote tubulin assembly” and the “fold more potent than parent compounds” value [3] is given as greater than 10 fold.

With `O=c1[nH]cc(F)c(=O)[nH]1` [5-FU] the PD [4] was 4%, the PR [4] was 22% and the “acute skin toxicity grade 3” value [4] was 96%. The “clinical CR” value [4] was 74% and the Kelim [5] was 3.7 0.8 hr-1.

With `CC(C)(C#N)c1cc(Cn2cncn2)cc(C(C)(C)C#N)c1` [AN] the “OR (CR+PR)” value [6] was 29%, the “median TTP” value [6] was 8.5 months and 10.7 months and the thromboembolic events [6] was 4.5%. It also gave a vaginal bleeding [6] of 1.2%.

For `NC(=O)c1cc(N2CC2)c([N+](=O)[O-])cc1[N+](=O)[O-]` [CB1954, 5-(aziridin-l-yl)-2,4-dinitrobenzamide], the “increase in CB 1954 cytotoxicity in the presence of NRH” value [7] was 100-3000 fold, the “drug unchanged in the urine” value [8] was less than 5% and the median elimination half-life [8] was 51 min. For the same molecule, the “time serum levels greater than 0.1 µM” value [8] was “more than 4 hours”, the “time serum levels greater than 1 M” value [8] was 2 h and the “maximum tolerated dose (MTD)” value ([8]; iv) was 37.5 mg/m2.

With `COc1c(C[C@@H](C)OC(=O)Oc2ccc(O)cc2)c2c3c(C[C@@H](C)OC(=O)c4ccccc4)c(OC)c(=O)c4c(O)cc(OC)c(c5c(OC)cc(O)c(c1=O)c52)c43` [Calphostin C] the “VB6 cell migration reduced to” value [9] was 7.8%.

For `C[C@]12CC[C@@H]3c4ccc(O)cc4CC[C@H]3[C@@H]1CC[C@@H]2O` [E2, Oestradiol], the “induction of integrin 1 expression” value [10] was 1.7 fold and the “reduction of integrin 1 expression” value [10] was 29%.

For `Oc1cccc(-c2c3nc(c(-c4cccc(O)c4)c4ccc([nH]4)c(-c4cccc(O)c4)c4nc(c(-c5cccc(O)c5)c5ccc2[nH]5)CC4)C=C3)c1` [Foscan], the neurotoxicity [11] was “No specific neurotoxicity” and the tumour effect [11] was “consistent tumour necrosis”.

In the case of `CCOc1ccc(-c2nc3ccc(-c4nc5ccc(N6CCN(C)CC6)cc5[nH]4)cc3[nH]2)cc1` [Hoechst 33342], the “expression of top2 at confluence” value [12] is reported as “increased expression”.

For `COc1cc2c(c(OC)c1OC)-c1ccc(O)cc1[C@@H](NC(C)=O)CC2` [N-acetylcolchinol], the “concentrations at which toxicity/antiproliferative effects occur” value [13] was greater than 100 M.

For `C[C@@H](O)[C@@H]1NC(=O)[C@H](CCCCN)NC(=O)[C@@H](Cc2c[nH]c3ccccc23)NC(=O)[C@H](Cc2ccccc2)NC(=O)[C@@H](NC(=O)[C@H](N)Cc2ccccc2)CSSC[C@@H](C(=O)N[C@H](CO)[C@@H](C)O)NC1=O` [Octreotide], the neutropenic pyrexia [14] was 9 % of treatment cycles.

For `CC/C(=C(\c1ccccc1)c1ccc(OCCN(C)C)cc1)c1ccccc1` [TAM], the “OR (CR+PR)” value [6] was 27%, the “median TTP” value [6] was 7.0 months and 6.4 months and the thromboembolic events [6] was 7.6%. The vaginal bleeding [6] was 2.9%.

For `CC(=O)O[C@@]12CO[C@@H]1C[C@H](O)[C@@]1(C)C(=O)[C@H](O)C3=C(C)[C@@H](OC(=O)[C@H](O)[C@@H](NC(=O)OC(C)(C)C)c4ccccc4)C[C@@](O)([C@@H](OC(=O)c4ccccc4)[C@H]21)C3(C)C` [TAX], the median survival [15] was 204 days, the “patients requiring admission due to neutropenic sepsis” value [15] was 40% and the patients showing response [15] was 53%.

`O=C1CCC(N2C(=O)c3ccccc3C2=O)C(=O)N1` (stereo not shown) [Thalidomide] gave a response rate [16] of 10%.

Work on `C#CCN(Cc1cc2c(=O)[nH]c(C)nc2cc1C)c1ccc(C(=O)N[C@@H](CCc2nnn[nH]2)C(=O)O)c(F)c1` [ZD9331] yielded a Km [17] of 1 to 2 µM.

In the case of `CC[C@@]1(O)C(=O)OCc2c1cc1n(c2=O)Cc2cc3ccccc3nc2-1` [camptothecin], the “nicked DNA / cleavage” value [18] is reported as 90%.

For `N.N.[Cl][Pt][Cl]` [cisplatin], the general malaise [19] was 56%, the hypomagnesaemia [20] was 14 % of all chemotherapy cycles and the “grade 3 or severe (grade 4) neutropaenia” value [21] was 27%. The “some degree of neutropaenia” value [21] was 70 % of patients and the thrombocytopaenia [21] was 12%.

In the case of `COc1ccc(/C=C\c2cc(OC)c(OC)c(OC)c2)cc1O` [combretastatin A4], the “average decrease in tumour volume” value [22] is reported as 30%.

For `COc1cc(/C=C/C(=O)CC(=O)/C=C/c2ccc(O)c(OC)c2)ccc1O` [curcumin, diferuloylmethane], the metabolism [23] was “metabolised to THC, HHC and HHCO”.

In the case of `Cn1cnc2c(NCc3ccccc3)nc(NCCO)nc21` [olomoucine], the “correlation of PK parameters, combination vs alone (spearman r)” value [24] is reported as 0.90.

For `CC[C@H](CO)Nc1nc(NCc2ccccc2)c2ncn(C(C)C)c2n1` [roscovitine], the “correlation of PK parameters, combination vs alone (spearman r)” value [24] was 0.99, the “ranking of AUC and clearance” value [24] was “highest AUC and the lowest clearance” and the “cross-resistance of HCT116/8FP cells” value [25] was “no cross-resistance”.

With `O=P(O)(O)C(O)(Cn1ccnc1)P(=O)(O)O` [zoledronate] the “proportion of apoptotic cells” value [26] was “significant increase”.

In the case of carboplatin, the “Grade 1 reaction” value [27] is reported as 45 % of patients, the “HSR on rechallenge with a platinum compound” value [27] is reported as 66% and the “grade II reaction” value [27] is reported as 25 % of patients. The “grade III reaction” value [27] was 30 % of patients, the “incidence of HSR” value [27] was 10.5% and the “mean duration of HSR” value [27] was 44 min. The “mean time interval between initial exposure and HSR” value [27] was 26.5 months, the “mean time of onset of symptoms” value [27] was 14.5 min and the “overall incidence of HSR” value [27] was 4.5%. The “AUC achieved, mean standard deviation” value [28] was 11420 % of target.
